Data set [1] concerns human thyroid peroxidase (TPO). The conditions noted are these: ToxCast, cited from earlier work; for activity in the TPO assay: NCCT_TPO_AUR_dn.
For data set [2] the following is noted: cited from earlier work; for pKa: A, acid, ref Tsao [40]; for logP: octanol/water, ref PubChem.
In data set [3] the test system is thyroid peroxidase (TPO). The data set is described as follows: QIVIVE oral equivalent dose related to TPO inhibition. The arrangement: species or system human. To be noted: humans; for oral equivalent dose related to TPO inhibition: Cmax equal to AC50 in NCCT_TPO_AUR_dn; for margin between human exposure and oral equivalent dose related to TPO inhibition: highest exposure estimates.

A short description of data set [4]: In vitro metabolism study. The data set is classed as in vitro ADME, human. The conditions noted are these: for conversion in incubations with and without the cofactor mix: RLS9 and HLS9, data not shown; for measured concentration at t = 0 lower than the added 1 μM: S9 incubation tubes, suggests binding to the plastic walls; for CLint,u: human (H), CLintapp corrected for the fraction unbound in the incubation; for CLintapp (apparent in vitro intrinsic clearance): human liver S9 (H), 1 μM substrate.

For data set [5] the following is noted: positive hit calls, ToxCast summary data; cited from earlier work.
For data set [6] the following is noted: cited from earlier work.
The nature of data set [7]: In vitro metabolism study. Type of data set: in vitro ADME, rat. To be noted: for CLint,u: rat (R), CLintapp corrected for the fraction unbound in the incubation; for CLintapp (apparent in vitro intrinsic clearance): rat liver S9 (R), 1 μM substrate.
The conditions of data set [8]: rats, 100 mg/kg bw [14C]-labelled, parent compound in plasma up to 24 h; cited from earlier work.
For data set [9] the following is noted: 90 day toxicity study, mainly effects on hematological parameters; cited from earlier work.
The conditions of data set [10]: cited from earlier work. This is another data set of the same source.
Data set [11] deals with thyroid peroxidase (TPO). The experiment in a line: QIVIVE oral equivalent dose related to TPO inhibition. The arrangement: species or system rat. To be noted: rats, Cmax equal to AC50 in NCCT_TPO_AUR_dn.
For data set [12] the following is noted: developmental toxicity study; cited from earlier work.
Where [13] appears, read: rats ♂, 17.5 mg/kg bw, mean (min–max).
[14] abbreviates: humans ♀ and ♂, 1.4 mg/kg bw, mean.
Setting [15] is: humans ♀ and ♂, 14 mg/kg bw, mean.
Setting [16] is: humans ♀, 1.4 mg/kg bw, mean (min–max).
[17] abbreviates: humans ♀, 14 mg/kg bw, mean (min–max).
[18] abbreviates: humans ♂, 1.4 mg/kg bw, mean (min–max).
Where [19] appears, read: humans ♂, 14 mg/kg bw, mean (min–max).
Where [20] appears, read: rats ♀ and ♂, 14 mg/kg bw, mean.
Setting [21] is: rats ♀ and ♂, 135 mg/kg bw, mean.
Where [22] appears, read: rats ♀, 14 mg/kg bw, mean (min–max).
Setting [23] is: rats ♀, 135 mg/kg bw, mean (min–max).
The mark [24] stands for this setting: rats ♂, 14 mg/kg bw, mean (min–max).
The mark [25] stands for this setting: rats ♂, 135 mg/kg bw, mean (min–max).

We go through 4 compounds from article PMC7887804 (Chemical Research in Toxicology, 2020).

Each structure is given as a SMILES string. Like-named read-outs stand apart in the source and are kept apart here. Marks after values point to notes of the source that are not given here. Some results are limits rather than exact numbers.

With `CCCCCCCCOC(=O)c1cc(O)c(O)c(O)c1` [octyl gallate], the “activity in the TPO assay” value in data set [1] is recorded as “active”. In [2], the pKa was 7.94 (A); the logP (commonly the decadic logarithm of the partition coefficient of the neutral form, usually between octanol and water) was 4.33. For the same compound, in the data set with thyroid peroxidase (TPO) [3], the “oral equivalent dose related to TPO inhibition” value came to 99 mg/kg bw; the “margin between human exposure and oral equivalent dose related to TPO inhibition” value is reported as “at least 106 fold”. Further, in data set [4], the “conversion in incubations with and without the cofactor mix” value is listed as “to some extent”; the “measured concentration at t = 0 lower than the added 1 μM” value is listed as “up to 2 fold”; the “CLint,u” value was 3999 μL/min/mg of S9 protein; the “CLintapp (apparent in vitro intrinsic clearance)” value (shortened to “CLintapp”) is listed as 3119 μL/min/mg of S9 protein. The “number of ToxCast assays in which the compound is active out of assays tested” value (from here on “number of ToxCast assays”) in [5] is 355 out of 982. Moreover, the “reported in vivo Cmax” value in data set [6] (rats ♀, 17.5 mg/kg bw, mean) is “♀ 20 (range NR)^a ng/mL”. Further, in [6] (setting [13]), the “reported in vivo AUC” value was “♂ 3.7 (1.4–7.8) n = 6 ng*hr/mL” and the “reported in vivo Cmax” value is recorded as “♂ 19 (9–41) n = 6 ng/mL”. Also, in [7], the “CLint,u” value is listed as 4695 μL/min/mg of S9 protein and the “CLintapp” value is given as 3662 μL/min/mg of S9 protein.
Regarding `COC(=O)c1ccc(O)cc1` [methylparaben], in [4], the “conversion in incubations with and without the cofactor mix” value is “occurs both in the presence and absence of the cofactor mix”; the “CLint,u” value is 121 μL/min/mg of S9 protein; the “CLintapp” value is on record as 102 μL/min/mg of S9 protein. Further, the “number of ToxCast assays” value in data set [5] is listed as 24 out of 886. For the same compound, in data set [8], the “reported in vivo Cmax” value is given as “No parent compound was detected”. In [7], the “CLint,u” value was 642 μL/min/mg of S9 protein and the “CLintapp” value was 629 μL/min/mg of S9 protein. In [7] (rat vs human liver S9), the “faster conversion (CLint) by RLS9 compared with HLS9” value worked out at 6 fold.
For the compound `CCCCCCCCCCCCOC(=O)c1cc(O)c(O)c(O)c1` [dodecyl gallate], the “activity in the TPO assay” value in [1] was “active”. Further, in data set [2], the pKa is reported as 7.93 (A) and the logP is on record as 6.37. In the data set on thyroid peroxidase (TPO) [3], the “oral equivalent dose related to TPO inhibition” value amounted to 69 mg/kg bw; the “margin between human exposure and oral equivalent dose related to TPO inhibition” value is reported as not below 122 fold. In data set [4], the “conversion in incubations with and without the cofactor mix” value is reported as “to some extent”; the “measured concentration at t = 0 lower than the added 1 μM” value was “up to 2 fold”; the “CLint,u” value was 8800 μL/min/mg of S9 protein; the “CLintapp” value is reported as 88 μL/min/mg of S9 protein. The “number of ToxCast assays” value in data set [5] is 210 out of 441. Besides, the “reported in vivo Cmax” value in data set [6] (rats, 10 mg/kg bw oral, blood collected only 10 min after dosing) is reported as “no detectable plasma concentrations”. Also, in data set [7], the “CLint,u” value was 11 600 μL/min/mg of S9 protein and the “CLintapp” value is 232 μL/min/mg of S9 protein.
On to `CCCOC(=O)c1cc(O)c(O)c(O)c1` [propyl gallate], for which the NOAEL (in general, the highest dose or exposure tested at which no adverse effect was seen) is given as 150 mg/kg bw/day in [9] and 300 mg/kg bw/day in [12]. Moreover, in data set [1] (read-out: AC50 in the NCCT_TPO_AUR_dn assay, TPO inhibition), the AC50 (as a rule, the concentration giving half of the maximal activity seen) was 580 nM. The “reported in vivo AUC” value in [10] (setting [14]) was “♀ and ♂ 21 n = 11 ng*hr/mL”; in [10] (setting [15]) it was “♀ and ♂ 346 n = 10 ng*hr/mL”; in data set [10] (setting [16]), “♀ 19 (13-21) n = 4 ng*hr/mL”; in data set [10] (setting [17]), “♀ 290 (25–425) n = 5 ng*hr/mL”; in data set [10] (setting [18]), “♂ 21 (9.4–42) n = 7 ng*hr/mL”; in [10] (setting [19]) it was “♂ 402 (290–587) n = 5 ng*hr/mL”. Further, the “reported in vivo AUC” value is “♀ and ♂ 95 n = 12 ng*hr/mL” in data set [6] (setting [20]); “♀ and ♂ 1624 n = 16 ng*hr/mL” in data set [6] (setting [21]); “♀ 66 (39–100) n = 6 ng*hr/mL” in data set [6] (setting [22]); “♀ 1164 (321–3451) n = 8 ng*hr/mL” in data set [6] (setting [23]); “♂ 123 (62–217) n = 6 ng*hr/mL” in data set [6] (setting [24]); “♂ 2085 (660–4119) n = 8 ng*hr/mL” in data set [6] (setting [25]). Also, the “reported in vivo Cmax” value is “♀ and ♂ 13 n = 11 ng/mL” in [10] (setting [14]); “♀ and ♂ 152 n = 10 ng/mL” in data set [10] (setting [15]); “♀ 12 (11–14) n = 4 ng/mL” in [10] (setting [16]); “♀ 150 (10–240) n = 5 ng/mL” in data set [10] (setting [17]); “♂ 14 (4–33) n = 7 ng/mL” in [10] (setting [18]); “♂ 155 (84–208) n = 5 ng/mL” in data set [10] (setting [19]). Also, the “reported in vivo Cmax” value in data set [6] (setting [20]) is “♀ and ♂ 192 n = 12 ng/mL”; in data set [6] (setting [21]), “♀ and ♂ 4753 n = 16 ng/mL”; in [6] (setting [22]), “♀ 238 (68–462) n = 6 ng/mL”; in [6] (setting [23]), “♀ 4246 (884–12 825) n = 8 ng/mL”; in data set [6] (setting [24]), “♂ 145 (67–334) n = 6 ng/mL”; in data set [6] (setting [25]), “♂ 5260 (1635–11085) n = 8 ng/mL”. In addition, in data set [2], the logP was 1.87. In addition, the “oral equivalent dose related to TPO inhibition” value is recorded as 7.9 mg/kg bw with thyroid peroxidase (TPO) [11] and 6.3 mg/kg bw with thyroid peroxidase (TPO) [3]. The “CLint,u” value in [4] is given as 437 μL/min/mg of S9 protein; in data set [7], 835 μL/min/mg of S9 protein. Besides, the “CLintapp” value in data set [4] is on record as 428 μL/min/mg of S9 protein; in data set [7], 818 μL/min/mg of S9 protein. In addition, the “number of ToxCast assays” value in data set [5] is listed as 131 out of 888.
